What was measured:
Candida parapsilosis = experiment: Antifungal activity in vitro, resazurin growth inhibition screen: Candida parapsilosis; format: cell-based; details: Candida parapsilosis B66126; for IC50: Lodderomyces parapsilosis, read-out: Inf. D pIC50 (converted)
How it was run: (§1)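 Compounds were serially diluted 2- or 4-fold from DMSO stock with an intermediate water step, tested up to 64 μM final. Each well received 10^3 cfu of cryopreserved fungus in RPMI-MOPS medium. Resazurin served as the growth read-out, with drug-free culture as 100% growth and medium alone as 0%.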

Trichophyton rubrum = experiment: Antifungal activity in vitro, resazurin growth inhibition screen: Trichophyton rubrum; format: cell-based; details: Trichophyton rubrum B68183; for IC50: read-out: Inf. C pIC50 (converted)
How it was run: as §1

Microsporum canis = experiment: Antifungal activity in vitro, resazurin growth inhibition screen: Microsporum canis; format: cell-based; details: Microsporum canis B68128; for IC50: read-out: Inf. B pIC50 (converted)
How it was run: as §1

Cryptococcus neoformans = experiment: Antifungal activity in vitro, resazurin growth inhibition screen: Cryptococcus neoformans; format: cell-based; details: Cryptococcus neoformans B66663; for IC50: read-out: Inf. F pIC50 (converted)
How it was run: as §1

Sporothrix schenkii = experiment: Antifungal activity in vitro, resazurin growth inhibition screen: Sporothrix schenkii; format: cell-based; details: Sporothrix schenkii B62482; for IC50: read-out: Inf. A pIC50 (converted)
How it was run: as §1

Aspergillus fumigatus = experiment: Antifungal activity in vitro, resazurin growth inhibition screen: Aspergillus fumigatus; format: cell-based; details: Aspergillus fumigatus B42928; for IC50: read-out: Inf. E pIC50 (converted)
How it was run: as §1

[1] = test system: Trichophyton mentagrophytes; experiment: Antifungal activity in vitro, resazurin growth inhibition screen: Trichophyton mentagrophytes; format: cell-based; details: Trichophyton mentagrophytes B70554; for IC50: read-out: Inf. G pIC50 (converted)
How it was run: as §1

Scedosporium prolificans = experiment: Antifungal activity in vitro, resazurin growth inhibition screen: Scedosporium prolificans; format: cell-based; details: Scedosporium prolificans IHEM21157
Experimental: (§2) The standard susceptibility screen was performed in 96-well plates (U-bottom, Greiner Bio-One). Serial dilutions (2-fold or 4-fold) of 20 mM compound stock solutions were made in 100% DMSO, followed by an intermediate dilution step in water. These serial dilutions (10 μl) were then spotted onto test-plates that could be stored in the dark at 4° C. for a maximum period of 2 weeks. An adequate broad dose-range was included with 64 μM as the highest in-test concentration. […] The different fungal species/isolates (Table 3a) were cryopreserved and 1/1000 diluted in medium just prior to use. A standard inoculum of 200 μl containing 10^3 colony-forming unit (cfu) was then added to each well. A positive control (100% growth=fungal culture without antifungal) and a negative control (0% growth=RPMI-MOPS medium) were included on each plate.

Rhizomucor miehei = experiment: Antifungal activity in vitro, resazurin growth inhibition screen: Rhizomucor miehei; format: cell-based; details: Rhizomucor miehei IHEM13391
Experimental: as §2

Rhizopus oryzae = experiment: Antifungal activity in vitro, resazurin growth inhibition screen: Rhizopus oryzae; format: cell-based; details: Rhizopus oryzae IHEM5223
Experimental: as §2

Scedosporium apiospermum = experiment: Antifungal activity in vitro, resazurin growth inhibition screen: Scedosporium apiospermum; format: cell-based; details: Scedosporium apiospermum IHEM3817
Experimental: as §2

CN1C(=O)C(C)(C)c2cc(C3=NCc4c(Cl)cccc4-n4cccc43)ccc21 [Compound 1, 5-(7-chloro-6H-pyrrolo[1,2-a][1,4]benzodiazepin-4-yl)-1,3-dihydro-1,3,3-trimethyl-2H-indol-2-one]
IC50 (Candida parapsilosis): > 64.6 µM
IC50 (Trichophyton rubrum): 7.94 µM
IC50 (Microsporum canis): 9.33 µM
melting point: 233.7 to 235.1 °C
IC50 (Cryptococcus neoformans): 4.27 µM
IC50 (Sporothrix schenkii): > 64.6 µM
IC50 (Aspergillus fumigatus): 2.24 µM
IC50 [1]: 26.3 µM

Clc1ccc2c(c1Cl)CN=C(c1ccc3c(c1)CCC3)c1cccn1-2 [Compound 22, 7,8-dichloro-4-(2,3-dihydro-1H-inden-5-yl)-6H-pyrrolo[1,2-a][1,4]benzodiazepine]
IC50 (Candida parapsilosis): > 32.4 µM
IC50 (Trichophyton rubrum): 1 µM
IC50 (Microsporum canis): 3.02 µM
melting point: 199.3 to 201.6 °C
IC50 (Cryptococcus neoformans): 2.51 µM
IC50 (Sporothrix schenkii): > 32.4 µM
IC50 (Aspergillus fumigatus): 14.1 µM

Clc1ccc(Cl)c2c1CN=C(c1ccc3c(c1)CCC3)c1cccn1-2 [Compound 24, 7,10-dichloro-4-(2,3-dihydro-1H-inden-5-yl)-6H-pyrrolo[1,2-a][1,4]benzodiazepine]
IC50 (Candida parapsilosis): > 32.4 µM
IC50 (Trichophyton rubrum): 3.98 µM
IC50 (Microsporum canis): 8.91 µM
melting point: 194 to 194.2 °C
IC50 (Cryptococcus neoformans): > 32.4 µM
IC50 (Sporothrix schenkii): > 32.4 µM
IC50 (Aspergillus fumigatus): > 32.4 µM
IC50 [1]: 6.03 µM

Clc1cccc2c1-n1cccc1C(c1ccc3c(c1)CCCO3)=NC2 [Compound 43, 10-chloro-4-(3,4-dihydro-2H-1-benzopyran-6-yl)-6H-pyrrolo[1,2-a][1,4]benzo-diazepine]
IC50 (Candida parapsilosis): 4.37 µM
IC50 (Trichophyton rubrum): 0.129 µM
IC50 (Microsporum canis): 0.158 µM
melting point: 103.7 °C
IC50 (Cryptococcus neoformans): 0.209 µM
IC50 (Sporothrix schenkii): 0.912 µM
IC50 (Aspergillus fumigatus): 0.141 µM
IC50 [1]: 0.219 µM

O=C1CCc2ccc(C3=NCc4c(Cl)cccc4-n4cccc43)cc21 [Compound 55, 6-(7-chloro-6H-pyrrolo[1,2-a][1,4]benzodiazepin-4-yl)-2,3-dihydro-1H-inden-1-one]
IC50 (Candida parapsilosis): > 64.6 µM
IC50 (Trichophyton rubrum): 1.95 µM
IC50 (Microsporum canis): 3.89 µM
melting point: 214 to 217 °C
IC50 (Cryptococcus neoformans): > 64.6 µM
IC50 (Sporothrix schenkii): > 64.6 µM
IC50 (Aspergillus fumigatus): > 64.6 µM
IC50 [1]: 25.1 µM

O=C1CCCc2cc(C3=NCc4ccc(Cl)cc4-n4cccc43)ccc21 [Compound 60, 6-(9-chloro-6H-pyrrolo[1,2-a][1,4]benzodiazepin-4-yl)-3,4-dihydro-1 (2H)-naphthalenone]
IC50 (Candida parapsilosis): 3.63 µM
IC50 (Trichophyton rubrum): > 64.6 µM
IC50 (Microsporum canis): > 64.6 µM
melting point: > 280 °C
IC50 (Cryptococcus neoformans): 7.08 µM
IC50 (Sporothrix schenkii): 30.2 µM
IC50 (Aspergillus fumigatus): > 64.6 µM
IC50 [1]: > 64.6 µM

O=C1OCc2ccc(C3=NCc4c(Cl)cccc4-n4cccc43)cc21 [Compound 62, 6-(7-chloro-6H-pyrrolo[1,2-a][1,4]benzodiazepin-4-yl)-1(3H)-isobenzofuranone]
IC50 (Candida parapsilosis): > 64.6 µM
IC50 (Trichophyton rubrum): > 64.6 µM
IC50 (Microsporum canis): > 64.6 µM
melting point: 107.9 °C (dec.)
IC50 (Cryptococcus neoformans): > 64.6 µM
IC50 (Sporothrix schenkii): > 64.6 µM
IC50 (Aspergillus fumigatus): > 64.6 µM
IC50 [1]: > 64.6 µM

FC1(F)Oc2ccc(C3=NCc4ccc(Cl)cc4-n4cccc43)cc2O1 [Compound 75, 9-chloro-4-(2,2-difluoro-1,3-benzodioxol-5-yl)-6H-pyrrolo[1,2-a][1,4]benzo-diazepine]
Inf. D pIC50 (Candida parapsilosis): 5.09
Inf. C pIC50 (Trichophyton rubrum): 6.85
Inf. B pIC50 (Microsporum canis): 5.74
Inf. I pIC50 (Scedosporium prolificans): <4.19
Inf. K pIC50 (Rhizomucor miehei): <4.19
Inf. J pIC50 (Rhizopus oryzae): <4.19
Inf. F pIC50 (Cryptococcus neoformans): 5.84
Inf. H pIC50 (Scedosporium apiospermum): <4.19
Inf. A pIC50 (Sporothrix schenkii): 4.85
Inf. E pIC50 (Aspergillus fumigatus): 6.24
Inf. G pIC50 [1]: 6.42

FC1(F)Oc2ccc(C3=NCc4cccc(Cl)c4-n4cccc43)cc2O1 [Compound 76, 10-chloro-4-(2,2-difluoro-1,3-benzodioxol-5-yl)-6H-pyrrolo[1,2-a][1,4]benzo-diazepine]
Inf. D pIC50 (Candida parapsilosis): 5.18
Inf. C pIC50 (Trichophyton rubrum): 6.82
Inf. B pIC50 (Microsporum canis): 6.70
Inf. I pIC50 (Scedosporium prolificans): 5.04
Inf. K pIC50 (Rhizomucor miehei): 4.98
Inf. J pIC50 (Rhizopus oryzae): 4.57
Inf. F pIC50 (Cryptococcus neoformans): 5.82
Inf. H pIC50 (Scedosporium apiospermum): 5.13
Inf. A pIC50 (Sporothrix schenkii): 5.69
Inf. E pIC50 (Aspergillus fumigatus): 5.94
Inf. G pIC50 [1]: 6.38

Fc1cccc2c1CN=C(c1ccc3c(c1)OC(F)(F)O3)c1cccn1-2 [Compound 77, 4-(2,2-difluoro-1,3-benzodioxol-5-yl)-7-fluoro-6H-pyrrolo[1,2-a][1,4]benzo-diazepine]
IC50 (Candida parapsilosis): 3.39 µM
IC50 (Trichophyton rubrum): 0.0195 µM
IC50 (Microsporum canis): 0.135 µM
IC50 (Scedosporium prolificans; Lomentospora prolificans, read-out: Inf. I pIC50 (converted)): 1.74 µM
IC50 (Rhizomucor miehei; read-out: Inf. K pIC50 (converted)): > 64.6 µM
IC50 (Rhizopus oryzae; Rhizopus arrhizus, read-out: Inf. J pIC50 (converted)): 12 µM
IC50 (Cryptococcus neoformans): 5.37 µM
IC50 (Scedosporium apiospermum; read-out: Inf. H pIC50 (converted)): 22.4 µM
IC50 (Sporothrix schenkii): 3.55 µM
IC50 (Aspergillus fumigatus): 0.0562 µM
IC50 [1]: 0.115 µM

Fc1cc(F)c2c(c1)-n1cccc1C(c1ccc3c(c1)OC(F)(F)O3)=NC2 [Compound 78, 4-(2,2-difluoro-1,3-benzodioxol-5-yl)-7,9-difluoro-6H-pyrrolo[1,2-a][1,4]benzo-diazepine]
Inf. D pIC50 (Candida parapsilosis): 5.64
Inf. C pIC50 (Trichophyton rubrum): 6.85
Inf. B pIC50 (Microsporum canis): 6.26
Inf. I pIC50 (Scedosporium prolificans): 5.98
Inf. K pIC50 (Rhizomucor miehei): <4.19
Inf. J pIC50 (Rhizopus oryzae): <4.19
Inf. F pIC50 (Cryptococcus neoformans): <4.19
Inf. H pIC50 (Scedosporium apiospermum): 4.19
Inf. A pIC50 (Sporothrix schenkii): 5.28
Inf. E pIC50 (Aspergillus fumigatus): 6.44
Inf. G pIC50 [1]: 6.24

FC1(F)Oc2ccc(C3=NCc4c(Cl)cc(Cl)cc4-n4cccc43)cc2O1 [Compound 79, 7,9-dichloro-4-(2,2-difluoro-1,3-benzodioxol-5-yl)-6H-pyrrolo[1,2-a][1,4]benzo-diazepine]
Inf. D pIC50 (Candida parapsilosis): 5.62
Inf. C pIC50 (Trichophyton rubrum): 6.29
Inf. B pIC50 (Microsporum canis): 6.28
Inf. I pIC50 (Scedosporium prolificans): 5.98
Inf. K pIC50 (Rhizomucor miehei): <4.19
Inf. J pIC50 (Rhizopus oryzae): <4.19
Inf. F pIC50 (Cryptococcus neoformans): 5.60
Inf. H pIC50 (Scedosporium apiospermum): 5.72
Inf. A pIC50 (Sporothrix schenkii): 4.90
Inf. E pIC50 (Aspergillus fumigatus): 5.71
Inf. G pIC50 [1]: 5.79

CN1CCc2cc(C3=NCc4c(Cl)cccc4-n4cccc43)ccc21 [Compound 83, 7-chloro-4-(2,3-dihydro-1-methyl-1H-indol-5-yl)-6H-pyrrolo[1,2-a][1,4]benzo-diazepine]
Inf. D pIC50 (Candida parapsilosis): 5.28
Inf. C pIC50 (Trichophyton rubrum): 5.71
Inf. B pIC50 (Microsporum canis): 5.66
Inf. I pIC50 (Scedosporium prolificans): 5.85
Inf. K pIC50 (Rhizomucor miehei): <4.19
Inf. J pIC50 (Rhizopus oryzae): <4.19
Inf. F pIC50 (Cryptococcus neoformans): 5.57
Inf. H pIC50 (Scedosporium apiospermum): 4.76
Inf. A pIC50 (Sporothrix schenkii): 5.14
Inf. E pIC50 (Aspergillus fumigatus): 5.89
Inf. G pIC50 [1]: 5.06

Source: patent publication US9040524B2, “Antifungal 5,6-dihydro-4H-pyrrolo[1,2-a][1,4]-benzodiazepines and 6H-pyrrolo[1,2-a][1,4]benzodiazepines substituted with bicycle benzene derivatives” (JANSSEN PHARMACEUTICA NV, priority 2010, dated 2015)
